# Results as given in article PMC400651 (Breast Cancer Research, 2003).
# Molecular target: aryl hydrocarbon receptor (AhR) (Homo sapiens, UniProt P35869)
# Assay: [3H]TCDD radioligand competition in whole T47D cells
# Assay type: cell-based
# aryl hydrocarbon receptor (AhR), sequence (P35869 11-848): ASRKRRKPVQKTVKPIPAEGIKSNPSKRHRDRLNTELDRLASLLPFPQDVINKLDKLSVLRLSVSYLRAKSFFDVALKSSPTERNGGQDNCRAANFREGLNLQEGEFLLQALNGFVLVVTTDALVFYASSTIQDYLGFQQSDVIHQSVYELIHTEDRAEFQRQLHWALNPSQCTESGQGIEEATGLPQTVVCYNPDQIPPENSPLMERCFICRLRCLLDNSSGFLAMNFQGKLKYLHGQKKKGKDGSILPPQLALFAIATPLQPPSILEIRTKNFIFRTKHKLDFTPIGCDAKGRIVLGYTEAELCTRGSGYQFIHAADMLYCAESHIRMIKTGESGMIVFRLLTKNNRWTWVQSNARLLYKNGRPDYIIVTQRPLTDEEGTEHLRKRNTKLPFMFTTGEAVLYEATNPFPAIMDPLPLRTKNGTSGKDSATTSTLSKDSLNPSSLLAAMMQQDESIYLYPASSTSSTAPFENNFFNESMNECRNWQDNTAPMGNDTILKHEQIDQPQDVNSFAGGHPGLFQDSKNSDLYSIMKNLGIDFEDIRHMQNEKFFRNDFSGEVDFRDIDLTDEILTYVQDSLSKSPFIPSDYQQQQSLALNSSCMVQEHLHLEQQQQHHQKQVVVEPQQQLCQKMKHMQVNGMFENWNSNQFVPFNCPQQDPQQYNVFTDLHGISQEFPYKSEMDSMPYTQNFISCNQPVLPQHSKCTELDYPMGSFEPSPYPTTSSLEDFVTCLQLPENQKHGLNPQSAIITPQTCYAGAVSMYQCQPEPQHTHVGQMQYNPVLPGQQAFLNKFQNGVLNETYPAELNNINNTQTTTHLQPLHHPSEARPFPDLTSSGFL
smiles,measurement,value
O=C(O)/C=C/c1ccc(O)c(O)c1 [caffeic acid],IC50,158 nM
